According to ChEMBL document CHEMBL1124775 (J Med Chem, 1990):
pKd: −log10 of the molar value.

Species: Rattus norvegicus
Assay: Binding of [3H]diprenorphine to rat brain membranes was evaluated and the dissociation constant (KD) was determined.
Set-up: species or system Membrane

C=CCN1CC[C@]23c4c5ccc(O)c4O[C@H]2C(=O)CC[C@@]3(O)[C@H]1C5 [NALOXONE]
pKd: 8.00
